Earlier results in patent US8686040B2, “Method for treating anal pruritis and other perianal disorders” (RDD Pharma Ltd., priority 2008, dated 2014).

Legend:
[1] = relative to gabapentin

## CC(C)C[C@H](CN)CC(=O)O [Pregabalin]
other
  time to reach peak concentration after oral ingestion: ≤ 90 min
oral
  absorption when administered orally: greater than 90%
[1]
  lipid solubility: higher lipid solubility than gabapentin
